Columns and labels:
[1] = tested on: rats (Sprague-Dawley, male); conditions: rat, in vivo
Experimental: Veratridine was injected intra-plantar at 30 micrograms.
Known preclinical and clinical analgesics were tested to see if they could prevent veratridine-induced behaviors.

[2] = tested on: male mice (CD1 strain); conditions: mouse, in vivo
[3] = biological target: T1, hNaV1.7 (Homo sapiens, UniProt Q15858); format: cell-based
T1 construct: expressed in transfected cells; host or cells: HEK 293
T1 sequence (Q15858 whole entry): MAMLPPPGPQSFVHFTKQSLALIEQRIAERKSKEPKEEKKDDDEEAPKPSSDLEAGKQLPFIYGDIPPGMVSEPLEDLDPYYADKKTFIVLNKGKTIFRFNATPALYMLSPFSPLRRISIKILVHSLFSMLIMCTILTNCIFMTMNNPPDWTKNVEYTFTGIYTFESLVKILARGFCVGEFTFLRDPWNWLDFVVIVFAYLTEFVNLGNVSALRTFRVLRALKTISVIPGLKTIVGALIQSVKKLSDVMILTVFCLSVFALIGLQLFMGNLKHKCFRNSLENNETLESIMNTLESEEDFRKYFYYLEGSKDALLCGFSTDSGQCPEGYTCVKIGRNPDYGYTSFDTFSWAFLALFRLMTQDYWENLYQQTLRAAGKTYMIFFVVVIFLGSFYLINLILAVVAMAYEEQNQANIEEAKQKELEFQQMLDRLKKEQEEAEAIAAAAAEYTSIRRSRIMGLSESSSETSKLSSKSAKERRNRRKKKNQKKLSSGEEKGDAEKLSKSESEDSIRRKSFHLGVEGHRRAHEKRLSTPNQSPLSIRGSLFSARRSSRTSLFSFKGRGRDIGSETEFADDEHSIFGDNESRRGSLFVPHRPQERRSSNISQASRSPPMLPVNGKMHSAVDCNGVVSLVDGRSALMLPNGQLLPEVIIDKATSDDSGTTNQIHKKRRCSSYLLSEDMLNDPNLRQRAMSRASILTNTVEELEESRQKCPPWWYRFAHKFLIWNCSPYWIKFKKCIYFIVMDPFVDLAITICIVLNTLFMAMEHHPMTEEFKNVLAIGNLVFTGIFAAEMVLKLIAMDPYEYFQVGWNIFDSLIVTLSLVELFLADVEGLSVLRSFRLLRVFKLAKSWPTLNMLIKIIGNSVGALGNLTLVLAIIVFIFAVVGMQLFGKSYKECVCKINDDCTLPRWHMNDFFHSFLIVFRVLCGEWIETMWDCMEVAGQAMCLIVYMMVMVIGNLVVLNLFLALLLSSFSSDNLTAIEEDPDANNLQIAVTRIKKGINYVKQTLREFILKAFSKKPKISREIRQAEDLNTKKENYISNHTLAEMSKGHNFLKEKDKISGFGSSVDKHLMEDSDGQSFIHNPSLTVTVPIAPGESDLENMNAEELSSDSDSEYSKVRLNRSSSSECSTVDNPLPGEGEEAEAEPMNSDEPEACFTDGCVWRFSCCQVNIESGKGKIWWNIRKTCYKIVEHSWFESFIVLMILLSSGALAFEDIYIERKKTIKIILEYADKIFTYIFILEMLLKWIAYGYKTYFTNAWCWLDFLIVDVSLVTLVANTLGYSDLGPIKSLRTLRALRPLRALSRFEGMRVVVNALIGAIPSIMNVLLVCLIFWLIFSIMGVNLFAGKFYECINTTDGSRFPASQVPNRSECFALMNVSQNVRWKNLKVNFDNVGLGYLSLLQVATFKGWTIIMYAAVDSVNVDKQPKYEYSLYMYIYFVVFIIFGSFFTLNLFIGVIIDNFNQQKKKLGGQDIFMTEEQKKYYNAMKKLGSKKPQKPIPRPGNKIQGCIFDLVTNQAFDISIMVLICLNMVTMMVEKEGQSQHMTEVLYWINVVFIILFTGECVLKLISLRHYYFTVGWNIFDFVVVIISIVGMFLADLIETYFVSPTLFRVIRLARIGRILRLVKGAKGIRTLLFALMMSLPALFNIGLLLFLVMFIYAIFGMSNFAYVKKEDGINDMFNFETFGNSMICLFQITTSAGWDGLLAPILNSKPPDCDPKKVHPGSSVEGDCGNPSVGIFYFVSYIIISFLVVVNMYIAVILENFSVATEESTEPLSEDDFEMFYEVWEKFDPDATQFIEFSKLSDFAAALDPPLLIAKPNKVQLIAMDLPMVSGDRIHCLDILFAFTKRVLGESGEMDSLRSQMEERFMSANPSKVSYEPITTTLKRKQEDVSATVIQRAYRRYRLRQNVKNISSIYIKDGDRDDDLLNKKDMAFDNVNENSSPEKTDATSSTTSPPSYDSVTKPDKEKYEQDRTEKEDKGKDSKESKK

[4] = biological target: NaV1.5 (Rattus norvegicus, UniProt P15389); conditions: cited from earlier work
Sequence of NaV1.5 (P15389 whole entry, looked up): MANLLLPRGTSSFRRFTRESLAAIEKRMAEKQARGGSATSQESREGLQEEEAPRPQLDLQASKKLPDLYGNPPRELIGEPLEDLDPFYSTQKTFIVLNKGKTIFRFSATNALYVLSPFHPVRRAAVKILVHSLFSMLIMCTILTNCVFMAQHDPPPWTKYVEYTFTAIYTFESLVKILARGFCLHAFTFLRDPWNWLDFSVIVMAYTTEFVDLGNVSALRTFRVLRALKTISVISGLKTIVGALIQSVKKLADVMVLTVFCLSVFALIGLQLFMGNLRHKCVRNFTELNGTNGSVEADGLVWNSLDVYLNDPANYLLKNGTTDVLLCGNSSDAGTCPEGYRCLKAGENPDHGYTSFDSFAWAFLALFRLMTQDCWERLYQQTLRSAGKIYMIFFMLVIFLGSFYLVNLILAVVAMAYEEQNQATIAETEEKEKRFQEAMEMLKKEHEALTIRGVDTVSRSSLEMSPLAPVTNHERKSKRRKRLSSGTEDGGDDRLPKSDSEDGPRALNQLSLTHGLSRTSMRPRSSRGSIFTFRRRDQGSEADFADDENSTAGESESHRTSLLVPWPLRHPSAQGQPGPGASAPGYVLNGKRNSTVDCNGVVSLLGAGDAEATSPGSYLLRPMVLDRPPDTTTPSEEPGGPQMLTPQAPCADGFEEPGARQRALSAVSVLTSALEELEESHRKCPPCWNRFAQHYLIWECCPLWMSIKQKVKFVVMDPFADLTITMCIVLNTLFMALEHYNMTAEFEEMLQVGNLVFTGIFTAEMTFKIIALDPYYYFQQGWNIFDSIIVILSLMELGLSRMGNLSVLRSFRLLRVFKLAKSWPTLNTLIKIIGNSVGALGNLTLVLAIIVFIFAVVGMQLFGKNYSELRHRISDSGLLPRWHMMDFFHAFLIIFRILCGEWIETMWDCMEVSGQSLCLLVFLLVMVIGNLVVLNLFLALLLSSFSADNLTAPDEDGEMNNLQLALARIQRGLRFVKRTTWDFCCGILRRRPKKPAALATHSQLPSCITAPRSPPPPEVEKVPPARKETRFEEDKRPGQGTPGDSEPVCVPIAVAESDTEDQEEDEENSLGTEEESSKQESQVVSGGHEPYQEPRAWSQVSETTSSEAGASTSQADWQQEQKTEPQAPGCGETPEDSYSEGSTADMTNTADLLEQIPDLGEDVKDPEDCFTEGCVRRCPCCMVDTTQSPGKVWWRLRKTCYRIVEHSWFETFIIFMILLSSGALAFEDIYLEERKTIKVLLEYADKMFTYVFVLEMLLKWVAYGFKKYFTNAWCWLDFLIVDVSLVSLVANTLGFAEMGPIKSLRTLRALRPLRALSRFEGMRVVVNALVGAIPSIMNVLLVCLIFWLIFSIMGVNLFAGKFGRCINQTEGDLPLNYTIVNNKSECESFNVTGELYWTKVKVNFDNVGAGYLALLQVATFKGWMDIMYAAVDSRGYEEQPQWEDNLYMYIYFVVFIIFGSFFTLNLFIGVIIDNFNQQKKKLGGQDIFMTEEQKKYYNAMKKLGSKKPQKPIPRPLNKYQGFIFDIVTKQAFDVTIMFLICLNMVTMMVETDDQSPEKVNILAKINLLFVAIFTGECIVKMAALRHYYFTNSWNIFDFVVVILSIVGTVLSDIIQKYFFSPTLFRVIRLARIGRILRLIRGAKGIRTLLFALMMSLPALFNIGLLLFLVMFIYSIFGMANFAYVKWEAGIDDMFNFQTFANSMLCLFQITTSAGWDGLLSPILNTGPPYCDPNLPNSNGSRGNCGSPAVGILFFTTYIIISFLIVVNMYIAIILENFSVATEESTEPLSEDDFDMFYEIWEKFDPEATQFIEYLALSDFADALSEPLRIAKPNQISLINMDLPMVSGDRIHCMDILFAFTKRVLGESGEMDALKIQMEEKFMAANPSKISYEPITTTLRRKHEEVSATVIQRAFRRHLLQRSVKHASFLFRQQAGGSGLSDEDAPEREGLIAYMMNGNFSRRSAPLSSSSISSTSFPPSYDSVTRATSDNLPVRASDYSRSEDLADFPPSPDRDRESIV

[5] = biological target: NaV1.9 (Rattus norvegicus, UniProt O88457); conditions: cited from earlier work
[6] = biological target: NaV1.8 (Rattus norvegicus, UniProt Q62968); conditions: cited from earlier work

COc1ccc(C(=O)O[C@H]2CC[C@@]3(C)[C@@H]4CC[C@H]5[C@]6(O)C[C@H](O)[C@@]7(O)[C@@H](CN8C[C@@H](C)CC[C@H]8[C@@]7(C)O)[C@]6(O)C[C@@]53O[C@]24O)cc1OC [veratridine, 4α,9-Epoxy-3β-veratroyloxy-5β-cevan-4β,12,14,16β,17,20-hexaol]
pain-related behaviors caused by veratridine injected into the paw [1]: caused two separate pain-related behaviors | side effects of veratridine [1]: variable neurological side effects | lifting behavior caused by veratridine [2]: caused equivalent lifting behavior

CNCC[C@H](Oc1cccc2ccccc12)c1cccs1 [Duloxetine, duloxetine]
Significant Reversal of Edema [1]: No | sodium channel activator-induced pain-like behaviors (licking, flinching) [1]: inhibited somewhat

NCC1(CC(=O)O)CCCCC1 [Gabapentin, gabapentin]
Significant Reversal of Edema [1]: No

COc1ccc2cc([C@H](C)C(=O)O)ccc2c1 [Naproxen, naproxen]
Significant Reversal of Edema [1]: No

CC1(O)CC23CC(O)C4(O)C(CC(O)C4(C)C)C(C)(O)C2CCC1C3O (centres unmarked) [grayanotoxin III]
inactivation during the test pulse [3]: did not inactivate | voltage at which sodium currents start to be activated [3]: −95 mV | response to injected sodium channel modulator [2]: produced a lifting/licking response

CN1C(=O)CN=C(c2ccccc2)c2cc(Cl)ccc21 [Diazepam]
Significant Reversal of Edema [1]: No | Significant Reversal of Flinching [1]: No | Significant Reversal of Lifting [1]: No | sodium channel activator-induced pain-like behaviors (licking, flinching) [1]: ineffective

Cc1cccc(C)c1OCC(C)N (centres unmarked) [Mexiletine, mexiletine]
Significant Reversal of Edema [1]: Yes | Significant Reversal of Flinching [1]: Yes | Significant Reversal of Lifting [1]: Yes | veratridine-induced lifting and flinching behaviors ([1]; po): prevented in a dose-dependent manner | effects of veratridine (lifting) [2]: blocked | lifting/licking response to deltamethrin [2]: prevented the lifting/licking response | lifting/licking response to grayanotoxin III [2]: prevented the lifting/licking response

CC1(C)[C@H](C(=O)O[C@H](C#N)c2cccc(Oc3ccccc3)c2)[C@@H]1C=C(Br)Br [deltamethrin]
response to injected sodium channel modulator [2]: produced a lifting/licking response

CN1CC[C@]23c4c5ccc(O)c4O[C@H]2[C@@H](O)C=C[C@H]3[C@H]1C5 [Morphine, morphine]
Significant Reversal of Edema [1]: No

NC1=N[C@H](O)[C@H]2[C@H]3O[C@]4(O)O[C@@H]([C@@H](O)[C@@]2(N1)[C@@H]4O)[C@]3(O)CO [TTX, tetrodotoxin]
block by TTX [4]: resistant to block | block by TTX [5]: resistant to block | block by TTX [6]: resistant to block

Source: US20120185956A1, “GLOBAL NAV1.7 KNOCKOUT MICE AND USES” (priority 2011, published 2012)
